For orientation: IC50 means the midpoint of a concentration-inhibition curve. The solubility (kinetic) is the concentration staying in solution when a stock, usually in DMSO, is diluted into the medium. Usually Papp stands for a coefficient for how fast a substance crosses the barrier. Low readings indicate slow passage, high ones fast passage. In general, solubility refers to the dissolved amount per volume that the medium holds. A lower solubility goes with a poorly soluble substance.

Data set [1] deals with Tyrosine-protein kinase JAK1 (Homo sapiens, UniProt P23458). The format is cell-based.
Chain of Tyrosine-protein kinase JAK1 (P23458 whole entry): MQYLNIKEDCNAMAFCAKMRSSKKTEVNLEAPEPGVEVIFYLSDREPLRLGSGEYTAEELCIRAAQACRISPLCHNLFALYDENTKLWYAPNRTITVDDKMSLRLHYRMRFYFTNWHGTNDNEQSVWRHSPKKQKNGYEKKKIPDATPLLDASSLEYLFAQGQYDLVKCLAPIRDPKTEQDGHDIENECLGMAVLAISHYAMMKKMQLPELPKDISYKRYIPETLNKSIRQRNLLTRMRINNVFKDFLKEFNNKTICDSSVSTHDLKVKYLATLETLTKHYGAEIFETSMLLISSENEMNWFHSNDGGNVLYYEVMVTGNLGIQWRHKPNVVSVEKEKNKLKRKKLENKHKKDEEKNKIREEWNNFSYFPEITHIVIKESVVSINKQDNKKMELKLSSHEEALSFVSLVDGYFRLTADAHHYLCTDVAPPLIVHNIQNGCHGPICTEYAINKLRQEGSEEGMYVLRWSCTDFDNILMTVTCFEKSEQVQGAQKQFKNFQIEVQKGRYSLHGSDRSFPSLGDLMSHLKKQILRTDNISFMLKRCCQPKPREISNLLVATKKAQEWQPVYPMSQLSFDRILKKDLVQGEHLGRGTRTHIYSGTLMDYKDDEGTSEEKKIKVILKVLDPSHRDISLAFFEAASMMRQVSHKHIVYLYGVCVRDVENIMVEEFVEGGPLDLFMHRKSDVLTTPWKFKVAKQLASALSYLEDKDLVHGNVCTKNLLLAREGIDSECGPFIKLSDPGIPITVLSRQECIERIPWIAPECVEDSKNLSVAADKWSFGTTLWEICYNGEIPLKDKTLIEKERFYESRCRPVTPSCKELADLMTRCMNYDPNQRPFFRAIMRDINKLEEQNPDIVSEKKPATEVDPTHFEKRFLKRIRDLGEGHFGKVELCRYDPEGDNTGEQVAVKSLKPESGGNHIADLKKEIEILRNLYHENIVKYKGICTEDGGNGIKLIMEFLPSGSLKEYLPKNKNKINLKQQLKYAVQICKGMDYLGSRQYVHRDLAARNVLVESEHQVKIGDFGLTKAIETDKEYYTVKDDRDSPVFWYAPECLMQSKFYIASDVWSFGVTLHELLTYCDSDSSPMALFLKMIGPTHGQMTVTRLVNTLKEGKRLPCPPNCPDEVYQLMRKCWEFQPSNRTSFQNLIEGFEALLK
Data set [2] can be described thus: physchem. As to conditions: buffer, pH 7.4.
Data set [3] has as its target Non-receptor tyrosine-protein kinase TYK2 (Homo sapiens, UniProt P29597). The format is cell-based.
Another data set addresses Aurora kinase B (Homo sapiens, UniProt Q96GD4).
The next data set can be described thus: in vitro. As to conditions: PAMPA, pH 7.4. For orientation: PAMPA measures passive passage across an artificial lipid membrane.
Data set [4] can be described thus: physchem. As to conditions: buffer, pH 6.5.
Description: Solubility of the compound in stimulated lung fluid at pH 6.5 measured after 4 hrs by HPLC-UV analysis

≈ marks a conversion by molar mass, not a printed value.

Chain of Non-receptor tyrosine-protein kinase TYK2 (P29597 whole entry): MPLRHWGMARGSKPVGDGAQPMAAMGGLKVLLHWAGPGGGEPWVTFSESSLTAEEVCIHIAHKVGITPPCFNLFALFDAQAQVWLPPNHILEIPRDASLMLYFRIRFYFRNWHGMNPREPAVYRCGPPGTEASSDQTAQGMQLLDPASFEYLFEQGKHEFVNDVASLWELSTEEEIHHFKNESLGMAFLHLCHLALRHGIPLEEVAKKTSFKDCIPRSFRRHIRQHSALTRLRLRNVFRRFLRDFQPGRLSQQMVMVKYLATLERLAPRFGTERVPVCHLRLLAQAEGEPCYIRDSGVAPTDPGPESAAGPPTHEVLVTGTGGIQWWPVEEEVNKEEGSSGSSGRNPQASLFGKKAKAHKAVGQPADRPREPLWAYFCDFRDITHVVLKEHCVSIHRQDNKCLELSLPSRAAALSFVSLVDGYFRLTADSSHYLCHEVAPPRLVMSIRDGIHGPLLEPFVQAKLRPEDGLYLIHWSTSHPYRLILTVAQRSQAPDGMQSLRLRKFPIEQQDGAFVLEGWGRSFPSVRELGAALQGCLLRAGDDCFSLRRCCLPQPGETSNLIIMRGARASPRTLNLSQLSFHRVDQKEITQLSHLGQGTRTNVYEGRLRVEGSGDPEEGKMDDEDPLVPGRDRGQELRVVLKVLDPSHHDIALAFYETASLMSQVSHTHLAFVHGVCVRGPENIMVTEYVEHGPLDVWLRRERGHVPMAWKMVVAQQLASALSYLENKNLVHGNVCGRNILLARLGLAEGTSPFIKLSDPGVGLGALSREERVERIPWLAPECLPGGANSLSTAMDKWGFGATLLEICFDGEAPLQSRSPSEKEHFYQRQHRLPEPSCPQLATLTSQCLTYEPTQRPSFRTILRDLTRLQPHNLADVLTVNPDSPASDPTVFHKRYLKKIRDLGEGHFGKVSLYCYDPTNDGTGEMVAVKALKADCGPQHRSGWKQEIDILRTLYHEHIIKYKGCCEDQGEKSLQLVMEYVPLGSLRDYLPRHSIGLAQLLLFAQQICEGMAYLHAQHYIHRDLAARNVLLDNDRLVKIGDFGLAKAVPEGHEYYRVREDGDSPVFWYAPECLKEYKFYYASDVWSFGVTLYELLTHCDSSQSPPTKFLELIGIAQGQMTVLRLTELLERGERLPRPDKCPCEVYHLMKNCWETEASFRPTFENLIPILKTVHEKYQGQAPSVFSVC
Chain of Aurora kinase B (Q96GD4 whole entry): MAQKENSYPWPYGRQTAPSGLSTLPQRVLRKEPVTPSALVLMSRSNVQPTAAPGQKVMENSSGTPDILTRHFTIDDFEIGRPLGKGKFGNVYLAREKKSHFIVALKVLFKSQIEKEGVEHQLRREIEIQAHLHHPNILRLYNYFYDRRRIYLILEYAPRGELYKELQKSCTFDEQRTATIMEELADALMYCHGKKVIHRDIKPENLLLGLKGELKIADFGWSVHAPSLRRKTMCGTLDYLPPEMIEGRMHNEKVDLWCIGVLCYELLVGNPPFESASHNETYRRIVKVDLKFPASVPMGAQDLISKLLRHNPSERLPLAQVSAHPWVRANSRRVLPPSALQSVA
Description for in vitro: Permeability of the compound at pH 7.4 incubated for 3 hrs by HPLC based artificial membrane permeability assay

Consider `Cn1cc(Nc2ncc3cccc(OC4CCNCC4)c3n2)cn1`, for which the concentration for half-maximal inhibition (IC50) in data set [1] is 79.4 nM. Moreover, the kinetic solubility at 1 h in “physchem [2]” worked out at 523 µM (≈ 170 µg/mL).
Turning to `COc1cccc2cnc(Nc3cnn(C)c3)nc12`, the half-inhibitory concentration (IC50) in data set [1] and in data set [3] was 631 nM each time. Besides, in the data set “physchem [2]”, the solubility (kinetic) at 1 h stood at 539 µM (≈ 138 µg/mL).
In the case of `CC(=O)N1CCC(Oc2cccc3cnc(Nc4cnn(C)c4)nc23)CC1`, the figures for the concentration for half-maximal inhibition (IC50) in data set [1] and in data set [3] were 251 nM and 316 nM, respectively. For the same compound, the kinetic solubility at 1 h in the data set “physchem [2]” came to 557 µM (≈ 204 µg/mL).
Compound `CCc1cc(O)c(F)cc1-c1cc(NCCNC)c2nc(N)ncc2c1` had an IC50 at Aurora kinase B of 12600 nM. This compound also had an apparent permeability (Papp) at 3 h in the data set “in vitro” of 1.2 ×10⁻⁶ cm/s.
With `CCc1cc(O)c(F)cc1-c1cc(NCCO)c2nc(N)ncc2c1`, the Papp at 3 h in the data set “in vitro” is 12 ×10⁻⁶ cm/s. Also, the solubility at 4 h in “physchem [4]” was 44 µg/mL (≈ 129 µM).
In data set [1], `CC(=O)N1CCC(Nc2cccc3cnc(Nc4cnn(C)c4)nc23)CC1` showed an IC50 of 126 nM. The compound further registered a solubility (kinetic) at 1 h in “physchem [2]” of 404 µM (≈ 148 µg/mL).
In the same order, the values of `COc1cc(-c2ccc(O)cc2)cc2cnc(Nc3cnn(C)c3)nc12` are 0.501 nM and 11 µM (≈ 3.82 µg/mL).

For the origin of these results see ChEMBL document CHEMBL5046242, “Investigation of Janus Kinase (JAK) Inhibitors for Lung Delivery and the Importance of Aldehyde Oxidase Metabolism” (J Med Chem, 2022).
